Experimental data taken from US7153885B2, “Stolonoxides” (Universidad de Cadiz, priority 2000, dated 2006).
Converted amounts (≈) assume the structure as drawn.

Assays:
Format in all cases: cell-based
[1] = tested on: P-388 (suspension culture of a lymphoid neoplasm from DBA/2 mouse); test: Antitumour screening, P-388 cell growth (adapted Bergeron method); conditions: approximate IC50, three days of incubation, growth vs control wells
Method: (§1) Cell Cultures. Cells were maintained in logarithmic phase of growth in Eagle's Minimum Essential Medium, with Earle's Balanced Salts, with 2.0 mM L-glutamine, with non-essential amino acids, without sodium bicarbonate (EMEM/neaa); supplemented with 10% Fetal Calf Serum (FCS), 10^−2 M sodium bicarbonate and 0.1 g/l penicillin-G+streptomycin sulfate.
(§2) A simple screening procedure has been carried out to determine and compare the antitumour activity of these compounds, using an adapted form of the method described by Bergeron et al (1984). The tumour cell line employed were P-388 (suspension culture of a lymphoid neoplasm from DBA/2 mouse), A-549 (monolayer culture of a human lung carcinoma), HT-29 (monolayer culture of a human colon carcinoma) and MEL-28 (monolayer culture of a human melanoma).
P-388 cell were seeded into 16 mm wells at 1×10^4 cells per well in 1 ml aliquots of MEM 5FCS containing the indicated concentration of drug. A separate set of cultures without drug was seeded as control growth to ensure that cells remained in exponential phase of growth. All determinations were carried out in duplicate. After three days of incubation at 37° C., 10% CO2 in a 98% humid atmosphere, an approximate IC50 was determined by comparing the growth in wells with drug to the growth in wells contol.

[2] = tested on: A-549 (monolayer culture of a human lung carcinoma); test: Antitumour screening, A-549 cell growth (crystal violet); conditions: approximate IC50, three days of incubation
Method: as §1, §2
(§3) A-549, HT-29 and MEL-28 were seeded into 16 mm wells at 2×10^4 cells per well in 1 ml aliquots of MEM 10FCS containing the indicated concentration of drug. A separate set of cultures without drug was seeded as control growth to ensure that cells remained in exponential phase of growth. All determinations were carried out in duplicate. After three days of incubation at 37° C., 10% CO2 in a 98% humid atmosphere, the wells were stained with 0.1% Crystal Violet. An approximate IC50 was determined by comparing the growth in wells with drug to the growth in wells control.

[3] = tested on: HT-29 (monolayer culture of a human colon carcinoma); test: Antitumour screening, HT-29 cell growth (crystal violet); conditions: approximate IC50, three days of incubation
Method: as §1, §2, §3

[4] = tested on: MEL-28 (monolayer culture of a human melanoma); test: Antitumour screening, MEL-28 cell growth (crystal violet); conditions: approximate IC50, three days of incubation
Method: as §1, §2, §3

| Compound | IC50 ([1]; Mus musculus, P388, 72 h) | IC50 ([2]; Homo sapiens, A549, 72 h) | IC50 ([3]; Homo sapiens, HT-29, 72 h) | IC50 P 388 [1] | IC50 A 549 [2] | IC50 HT 29 [3] | IC50 MEL 28 [4] |
| --- | --- | --- | --- | --- | --- | --- | --- |
| C=CCC/C=C\C=C/CCCCCC[C@H]1CC[C@@H]([C@H]2CC[C@@H](CC(=O)OC)OO2)O1 [Methyl ester (1b), Stolonoxide A methyl ester] | 0.1 µg/mL (≈ 0.238 µM) | 0.1 µg/mL (≈ 0.238 µM) | 0.1 µg/mL (≈ 0.238 µM) | – | – | – | – |
| Stolonoxide B methyl ester [Methyl ester (2b)] | – | – | – | 0.5 µg/mL | 0.1 µg/mL | 0.1 µg/mL | 0.5 µg/mL |
